Experimental findings from ChEMBL document CHEMBL1148070, “Cytotoxic saponins from New Zealand Myrsine species” (1994) are described below.

One assay concerns Poliovirus 1. Nature of the assay: Antiviral activity against Human poliovirus 1 assessed as inhibition of virus-induced cytopathic effect 40 ug/disk. The assay is classed as functional, organism-based. A general note: Protection from cytopathic effect is a common read-out in antiviral testing.
The next assay has as its system Human alphaherpesvirus 1. Nature of the assay: Antiviral activity against HSV1 assessed as inhibition of virus-induced cytopathic effect 40 ug/disk. It counts as functional, organism-based.
The subject of another assay is P388. Nature of the assay: Cytotoxicity against mouse P388 cells. The assay is classed as functional. As to conditions: read-out: ID50 (the source's name).

Converted amounts (≈) assume the structure as drawn. The source made the active and inactive calls. No cut-off for these calls is given here.

Regarding `CC1(C)CC[C@]23C(=O)O[C@@]4(CC[C@@H]5[C@@]6(C)CC[C@H](O[C@@H]7OC[C@H](O[C@@H]8O[C@H](CO)[C@@H](O)[C@H](O)[C@H]8O[C@@H]8OC[C@@H](O)[C@H](O)[C@H]8O)[C@H](O)[C@H]7O[C@@H]7O[C@H](CO)[C@@H](O)[C@H](O)[C@H]7O)C(C)(C)[C@@H]6CC[C@@]5(C)[C@]4(C)C[C@H]2O)[C@@H]3C1`, the inhibition result with Poliovirus 1 and in the assay with Human alphaherpesvirus 1 was “Active” in each case. Also, in the assay with P388, the IC50 was greater than 12.5 µg/mL.

Turning to `C[C@@H]1O[C@@H](O[C@H]2[C@H](O[C@H]3CO[C@@H](O[C@H]4CC[C@]5(C)[C@H]6CC[C@]78OC(=O)[C@@]9(CCC(C)(C)C[C@H]97)[C@H](O)C[C@@]8(C)[C@]6(C)CC[C@H]5C4(C)C)[C@H](O[C@@H]4O[C@H](CO)[C@@H](O)[C@H](O)[C@H]4O)[C@H]3O)O[C@H](CO)[C@@H](O)[C@@H]2O)[C@H](O)[C@H](O)[C@H]1O`, the inhibition entry with Poliovirus 1 and in the assay with Human alphaherpesvirus 1 was “Active” throughout. For the same molecule, the IC50 with P388 was found to be 10.2 µg/mL (≈ 9.49 µM).

With `CC1(C)CC[C@]23C(O)O[C@@]4(CC[C@@H]5[C@@]6(C)CC[C@H](O[C@@H]7OC[C@H](O[C@@H]8O[C@H](CO)[C@@H](O)[C@H](O)[C@H]8O[C@@H]8OC[C@@H](O)[C@H](O)[C@H]8O)[C@H](O)[C@H]7O[C@@H]7O[C@H](CO)[C@@H](O)[C@H](O)[C@H]7O)C(C)(C)[C@@H]6CC[C@@]5(C)[C@]4(C)C[C@H]2O)[C@@H]3C1` (some centres undefined), the inhibition result in the assay with Poliovirus 1 and in the assay on Human alphaherpesvirus 1 was “Active” in each case. For the same molecule, in the assay on P388, the IC50 amounted to 7 µg/mL (≈ 6.58 µM).

`C[C@@H]1O[C@@H](O[C@H]2[C@H](O[C@H]3CO[C@@H](O[C@H]4CC[C@]5(C)[C@H]6CC[C@]78OC(O)[C@@]9(CCC(C)(C)C[C@H]97)[C@H](O)C[C@@]8(C)[C@]6(C)CC[C@H]5C4(C)C)[C@H](O[C@@H]4O[C@H](CO)[C@@H](O)[C@H](O)[C@H]4O)[C@H]3O)O[C@H](CO)[C@@H](O)[C@@H]2O)[C@H](O)[C@H](O)[C@H]1O` (some centres undefined): the inhibition result in the assay with Poliovirus 1 and in the assay on Human alphaherpesvirus 1 was “Active” in each case. For the same molecule, the IC50 in the assay with P388 was greater than 12.5 µg/mL.

Take `C[C@@H]1O[C@@H](O[C@H]2[C@H](O[C@H]3CO[C@@H](O[C@H]4CC[C@]5(C)[C@H]6CC[C@]78OC[C@@]9(CC[C@](C)(C=O)C[C@H]97)[C@H](O)C[C@@]8(C)[C@]6(C)CC[C@H]5C4(C)C)[C@H](O[C@@H]4O[C@H](CO)[C@@H](O)[C@H](O)[C@H]4O)[C@H]3O)O[C@H](CO)[C@@H](O)[C@@H]2O)[C@H](O)[C@H](O)[C@H]1O` [ARDISIACRISPIN B]: the inhibition result in the assay on Poliovirus 1 and in the assay on Human alphaherpesvirus 1 was “Active” each time. Further, in the assay on P388, the IC50 is 8.6 µg/mL (≈ 8 µM).

For the molecule `C[C@@H]1O[C@@H](O[C@H]2[C@H](O[C@H]3CO[C@@H](O[C@H]4CC[C@]5(C)[C@H]6CC[C@]78OC[C@@]9(CCC(C)(C)C[C@H]97)[C@H](O)C[C@@]8(C)[C@]6(C)CC[C@H]5C4(C)C)[C@H](O[C@@H]4O[C@H](CO)[C@@H](O)[C@H](O)[C@H]4O)[C@H]3O)O[C@H](CO)[C@@H](O)[C@@H]2O)[C@H](O)[C@H](O)[C@H]1O`, the inhibition result in the assay on Poliovirus 1 and in the assay on Human alphaherpesvirus 1 was “Active” throughout. Besides, the IC50 in the assay on P388 stood at 0.85 µg/mL (≈ 0.801 µM).

Regarding `CC1(C)[C@@H](O[C@@H]2OC[C@H](O[C@@H]3O[C@H](CO)[C@@H](O)[C@H](O)[C@H]3O[C@@H]3OC[C@@H](O)[C@H](O)[C@H]3O)[C@H](O)[C@H]2O[C@@H]2O[C@H](CO)[C@@H](O)[C@H](O)[C@H]2O)CC[C@]2(C)[C@H]3CC[C@]45OC[C@@]6(CC[C@](C)(C=O)C[C@H]64)[C@H](O)C[C@@]5(C)[C@]3(C)CC[C@@H]12` [ARDISIACRISPIN A], the inhibition result in the assay with Poliovirus 1 and with Human alphaherpesvirus 1 was “Active” in each case. In the assay on P388, the IC50 stood at 7 µg/mL (≈ 6.6 µM).

Consider `CC1(C)CC[C@]23CO[C@@]4(CC[C@@H]5[C@@]6(C)CC[C@H](O[C@@H]7OC[C@H](O[C@@H]8O[C@H](CO)[C@@H](O)[C@H](O)[C@H]8O[C@@H]8OC[C@@H](O)[C@H](O)[C@H]8O)[C@H](O)[C@H]7O[C@@H]7O[C@H](CO)[C@@H](O)[C@H](O)[C@H]7O)C(C)(C)[C@@H]6CC[C@@]5(C)[C@]4(C)C[C@H]2O)[C@@H]3C1` [LYSIKOKIANOSIDE 1], for which the inhibition result in the assay with Poliovirus 1 and in the assay on Human alphaherpesvirus 1 was “Active” in each case. Further, the IC50 in the assay on P388 was 0.85 µg/mL (≈ 0.812 µM).
